Laboratory results as given in publication PMC5342262, “Synthesis, in vitro and in vivo evaluation of 3β-[^18F]fluorocholic acid for the detection of drug-induced cholestasis in mice” (PLoS ONE, 2017).
Blank lines part the entries; values can stand above or below the compound they belong to.

How the values were obtained:
[1] = tested on: hepatobiliary transport of [^18F]FCA; assay: Dynamic PET of [^18F]FCA in control, rifampicin and bosentan treated FVB-mice; details: pretreated FVB-mice; dynamic μPET
Description: Hepatobiliary transport of the tracer was evaluated in female wild-type FVB mice (5 weeks old, Charles River). The animals were housed in accordance with European Ethics Committee guidelines. The animal studies were approved by the Animal Experimental Ethical Committee of Ghent University (ECD 15/69). Food and water was provided ad libitum. Animals were fasted overnight before the PET-scan.
Mice were anesthetized with 1.5 v:v % isoflurane in 100% O2 for the duration of the experiment. An intravenous polyethylene line was placed in the lateral tail vein. The animals were placed in the small animal PET/CT-scanner (FLEX Triumph II small animal PET/CT-scanner; PET field of view: 7.5 cm axial; 1.3 mm spatial resolution; TriFoil Imaging) on a heated bed. A CT-scan was acquired for anatomical correlation.
The interaction of rifampicin (Sigma Aldrich) and bosentan (Activate Scientific) on in vivo [^18F]FCA transport was examined. FVB-mice were divided into 3 different groups (n = 3 per group): rifampicin, bosentan, and a control DMSO vehicle treated group). Both drugs were administered in doses of 100 mg/kg, intra-peritoneal in DMSO:PBS 70:30 v:v (rifampicin) or DMSO (bosentan) 1 hour before the start of the PET-scan. An additional dose (25 mg/kg for rifampicin in DMSO:PBS 40:60 v:v, 50 mg/kg for bosentan in DMSO) was co-injected intravenously with the tracer.
For each scan, 10 MBq of [^18F]FCA was administered intravenously and a 1 hour dynamic scan was started. Immediately after the dynamic scan, 18 MBq [^18F]FDG was injected intravenously. After 20 minutes, a 20 minutes static scan was taken.
PET-data were obtained in list-mode and were iteratively reconstructed (50 iterations) in frames of 15 seconds for the first 10 minutes, followed by 50 frames of 1 minute. ROI’s were drawn manually over liver, gallbladder and intestines using PMod software. A ROI was drawn in the left ventricle on the static [^18F]FDG scan to obtain an image-derived arterial blood input curve. The uptake of [^18F]FCA in arterial blood, liver, gallbladder and intestines was expressed as a % injected dose (% ID) and normalized for the weight of a 20 gram mouse. Time-activity curves (TAC’s) were generated using these values.
AUC, maximum % ID, and time to peak values were determined for the TAC’s with Graphpad Prism v3.00. Differences between 2 groups were determined with the non-parametric Mann-Whitney U test. P-values ≤ 0.05 were considered significant.

[2] = cited from earlier work
NTCP = biological target: T1, NTCP (Homo sapiens, UniProt Q14973); assay: In vitro uptake assay with [^3H]TC in CHO-NTCP cells
T1 sequence (Q14973 1-349): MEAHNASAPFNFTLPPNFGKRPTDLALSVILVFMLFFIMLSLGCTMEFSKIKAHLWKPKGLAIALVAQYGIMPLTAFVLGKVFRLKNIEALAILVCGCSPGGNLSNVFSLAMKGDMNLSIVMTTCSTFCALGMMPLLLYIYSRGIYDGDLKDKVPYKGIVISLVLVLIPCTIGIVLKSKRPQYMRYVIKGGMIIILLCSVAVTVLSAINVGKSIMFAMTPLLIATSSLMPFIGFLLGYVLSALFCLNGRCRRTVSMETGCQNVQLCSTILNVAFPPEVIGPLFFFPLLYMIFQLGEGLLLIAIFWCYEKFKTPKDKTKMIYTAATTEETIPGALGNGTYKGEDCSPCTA
Description: Transport of 3β-fluorocholic acid by NTCP, OATP1B1 and OATP1B3 was assessed using stable transfected cell lines. Chinese hamster ovary (CHO) cells, Human Embryonic Kidney (HEK), HEK293-OATP1B3 cells were purchased from Solvo Biotechnologies; CHO-NTCP and HEK293-OATP1B1 cells were a kind gift from the same company. CHO cells were cultured in Dulbecco’s modified Eagle’s medium (DMEM)/F12 with 10% fetal calf serum, 0.3 mM L-proline, 2 mM glutamine and penicilline/streptomycine (50 U/mL). HEK cells expressing OATP1B1, OATP1B3 and control cell lines were cultured in DMEM glutamax (high glucose/pyruvate) with 10% fetal calf serum, MEM non-essential amino acid supplement and penicilline/streptomycine (50 U/mL). All cell lines were cultured in a 37°C 5% CO2 environment.
Transport of FCA by the NTCP, OATP1B1 and OATP1B3 transporters was assessed by inhibition of the tritium labeled model substrates uptake.
Cells were seeded in 24-well plates at 400,000 cells per well. After 24 hours, the culture medium was removed and cells were washed twice with 1 mL 10 mM HEPES-Hank’s Balanced Salt Solution (HBSS; with Ca and Mg; 37°C pH 7.4) washing buffer. […] Of the dosing solution, 250 μL was added to the washed cells and incubation took place at 37°C for 15 minutes. The plates were cooled on ice and 1 mL 1% BSA ice-cold HBSS (with Ca and Mg) was added. Cells were washed twice with 2 mL ice-cold HBSS (with Ca and Mg) and were finally lysed with 250 μL 0.1 M NaOH. The plates were shaken for 15 minutes at 37°C. Of the lysate, 150 μL was used for liquid scintillation counting (TriCarb 2900 TR; Perkin Elmer) and 25 μL was subjected to a BCA assay (ThermoFisher Scientific) to determine protein content. Data points were collected in triplicate. IC50-values were calculated with Graphpad Prism v3.00 (Graphpad software).

[3] = set-up: method as in PMID 27513813; details: cited from earlier work

effect on hepatobiliary transport of [^18F]FCA [1]: significantly inhibited
Compound: COc1ccccc1Oc1c(NS(=O)(=O)c2ccc(C(C)(C)C)cc2)nc(-c2ncccn2)nc1OCCO [Bosentan, bosentan, reference compound]

Compound: CO[C@H]1/C=C/O[C@@]2(C)Oc3c(C)c(O)c4c(O)c(c(/C=N/N5CCN(C)CC5)c(O)c4c3C2=O)NC(=O)/C(C)=C\C=C\[C@H](C)[C@H](O)[C@@H](C)[C@@H](O)[C@@H](C)[C@H](OC(C)=O)[C@@H]1C [Rifampicin, rifampicin]
effect on ^99mTc mebrofenin canalicular efflux on the SPECT-scan ([2]; not told): complete block of canalicular efflux

Compound: C[C@H](CCC(=O)NCCS(=O)(=O)O)[C@H]1CC[C@H]2[C@@H]3[C@H](O)C[C@@H]4C[C@H](O)CC[C@]4(C)[C@H]3C[C@H](O)[C@]12C [[^3H]TC, [^3H]taurocholate]
uptake in CHO-NTCP cells (NTCP; 15 minutes of incubation without added FCA): 95.2 ± 6.0 pmol/mg protein
uptake in CHO-NTCP cells (kinetic profile) (NTCP; S2 file, 1 µM, 15 minutes of incubation): 135.5 pmol/mg protein
uptake in CHO-NTCP cells versus control (NTCP; S2 file, 15 minutes): 101 fold

Compound: Cc1cc(C)c(NC(=O)CN(CC(=O)[O-])CC(=O)[O-])c(C)c1Br.Cc1cc(C)c(NC(=O)CN(CC(=O)[O-])CC(=O)[O-])c(C)c1Br.[99Tc+4] [^99mTc-mebrofenin, ^99mTc Mebrofenin]
% ID in gallbladder and intestines ([2]; FVB-mice): 78.1 % ID
maximum % ID liver ([2]; FVB-mice): 51.8 % ID
time to reach maximum % ID in liver ([2]; FVB-mice): 2.2 min

Compound: [^99mTc]-DTPA-CA [^99mTc CA]
max % ID liver [3]: 25.7 % ID
maximal % ID in gallbladder and intestines [3]: 47.8 % ID
time to reach max % ID in liver [3]: 12.0 min

Compound: [^99mTc]-DTPA-CDCA [^99mTc CDCA]
max % ID liver [3]: 37.3 % ID
maximal % ID in gallbladder and intestines [3]: 62.2 % ID
time to reach max % ID in liver [3]: 12.7 min
